# Publication PMC4917279 (Journal of Medicinal Chemistry, 2016)
# What was measured:
# TRKC = biological target: T1, TRKC (Homo sapiens, UniProt Q16288); assay: KINOMEscan; format: binding; conditions: read-out: %Ctrl @ 1000 nM
# T1 construct: purchased DiscoveRx KINOMEscan
# JNK1 = biological target: T2, JNK1 (Homo sapiens, UniProt P45983); assay: KINOMEscan; format: binding; conditions: read-out: %Ctrl @ 1000 nM
# T2 construct: purchased DiscoveRx KINOMEscan
# TRKA = biological target: T3, TRKA (Homo sapiens, UniProt P04629); assay: KINOMEscan; format: binding; conditions: read-out: %Ctrl @ 1000 nM
# T3 construct: purchased DiscoveRx KINOMEscan
# SMYD2 = SMYD2 (Homo sapiens, UniProt Q9NRG4); assay: Ex vivo methylation detection by dot blot (AHNAK) in SMYD2-overexpressing KYSE-150 xenografts; design: expressed in transfected cells; species or system mouse; conditions: 3 days
# PCTK3 = biological target: T4, PCTK3 (Homo sapiens, UniProt Q07002); assay: KINOMEscan; format: binding; conditions: read-out: %Ctrl @ 1000 nM
# T4 construct: purchased DiscoveRx KINOMEscan
# VRK2 = biological target: T5, VRK2 (Homo sapiens, UniProt Q86Y07); assay: KINOMEscan; format: binding; conditions: read-out: %Ctrl @ 1000 nM
# T5 construct: purchased DiscoveRx KINOMEscan
# ALK(L1196M) = biological target: T6, ALK(L1196M) (Homo sapiens, UniProt Q9UM73, L1196M); assay: KINOMEscan; format: binding; conditions: read-out: %Ctrl @ 1000 nM
# T6 construct: purchased DiscoveRx KINOMEscan
# ABL1-phosphorylated = biological target: T7, ABL1-phosphorylated (Homo sapiens, UniProt P00519); assay: KINOMEscan; format: binding; conditions: read-out: %Ctrl @ 1000 nM
# T7 construct: purchased DiscoveRx
# PAK2 = biological target: T8, PAK2 (Homo sapiens, UniProt Q13177); assay: KINOMEscan; format: binding; conditions: read-out: %Ctrl @ 1000 nM
# T8 construct: purchased DiscoveRx KINOMEscan
# BMX = biological target: T9, BMX (Homo sapiens, UniProt P51813); assay: KINOMEscan; format: binding; conditions: read-out: %Ctrl @ 1000 nM
# T9 construct: purchased DiscoveRx KINOMEscan
# TTK = biological target: T10, TTK (Homo sapiens, UniProt P33981); assay: KINOMEscan; format: binding; conditions: read-out: %Ctrl @ 1000 nM
# T10 construct: purchased DiscoveRx KINOMEscan
# SYK = biological target: T11, SYK (Homo sapiens, UniProt P43405); assay: KINOMEscan; format: binding; conditions: read-out: %Ctrl @ 1000 nM
# T11 construct: purchased DiscoveRx KINOMEscan
# PDGFRA = biological target: T12, PDGFRA (Homo sapiens, UniProt P16234); assay: KINOMEscan; format: binding; conditions: read-out: %Ctrl @ 1000 nM
# T12 construct: purchased DiscoveRx KINOMEscan
# DDR1 = biological target: T13, DDR1 (Homo sapiens, UniProt Q08345); assay: KINOMEscan; format: binding; conditions: read-out: %Ctrl @ 1000 nM
# T13 construct: purchased DiscoveRx KINOMEscan
# SIK = biological target: T14, SIK (Homo sapiens, UniProt P57059); assay: KINOMEscan; format: binding; conditions: read-out: %Ctrl @ 1000 nM
# T14 construct: purchased DiscoveRx KINOMEscan
# CSNK1G1 = biological target: T15, CSNK1G1 (Homo sapiens, UniProt Q9HCP0); assay: KINOMEscan; format: binding; conditions: read-out: %Ctrl @ 1000 nM
# T15 construct: purchased DiscoveRx KINOMEscan
# RET(M918T) = biological target: T16, RET(M918T) (Homo sapiens, UniProt P07949, M918T); assay: KINOMEscan; format: binding; conditions: read-out: %Ctrl @ 1000 nM
# T16 construct: purchased DiscoveRx KINOMEscan
# CTK = biological target: T17, CTK (Homo sapiens, UniProt P42679); assay: KINOMEscan; format: binding; conditions: read-out: %Ctrl @ 1000 nM
# T17 construct: purchased DiscoveRx KINOMEscan
# PFCDPK1(P.falciparum) = biological target: T18, PFCDPK1(P.falciparum) (Plasmodium falciparum, UniProt P62344); assay: KINOMEscan; format: binding; conditions: read-out: %Ctrl @ 1000 nM
# T18 construct: purchased DiscoveRx KINOMEscan
# CAMKK2 = biological target: T19, CAMKK2 (Homo sapiens, UniProt Q96RR4); assay: KINOMEscan; format: binding; conditions: read-out: %Ctrl @ 1000 nM
# T19 construct: purchased DiscoveRx KINOMEscan
# TSSK1B = biological target: T20, TSSK1B (Homo sapiens, UniProt Q9BXA7); assay: KINOMEscan; format: binding; conditions: read-out: %Ctrl @ 1000 nM
# T20 construct: purchased DiscoveRx KINOMEscan
# FER = biological target: T21, FER (Homo sapiens, UniProt P16591); assay: KINOMEscan; format: binding; conditions: read-out: %Ctrl @ 1000 nM
# T21 construct: purchased DiscoveRx KINOMEscan
# PRKR = biological target: T22, PRKR (Homo sapiens, UniProt P19525); assay: KINOMEscan; format: binding; conditions: read-out: %Ctrl @ 1000 nM
# T22 construct: purchased DiscoveRx KINOMEscan
# FGFR3 = biological target: T23, FGFR3 (Homo sapiens, UniProt P22607); assay: KINOMEscan; format: binding; conditions: read-out: %Ctrl @ 1000 nM
# T23 construct: purchased DiscoveRx KINOMEscan
# ICK = biological target: T24, ICK (Homo sapiens, UniProt Q9UPZ9); assay: KINOMEscan; format: binding; conditions: read-out: %Ctrl @ 1000 nM
# T24 construct: purchased DiscoveRx KINOMEscan
# BTK = biological target: T25, BTK (Homo sapiens, UniProt Q06187); assay: KINOMEscan; format: binding; conditions: read-out: %Ctrl @ 1000 nM
# T25 construct: purchased DiscoveRx KINOMEscan
# MST2 = biological target: T26, MST2 (Homo sapiens, UniProt Q13188); assay: KINOMEscan; format: binding; conditions: read-out: %Ctrl @ 1000 nM
# T26 construct: purchased DiscoveRx KINOMEscan
# ROCK2 = biological target: T27, ROCK2 (Homo sapiens, UniProt O75116); assay: KINOMEscan; format: binding; conditions: read-out: %Ctrl @ 1000 nM
# T27 construct: purchased DiscoveRx KINOMEscan
# EGFR(L858R) = biological target: T28, EGFR(L858R) (Homo sapiens, UniProt P00533, L858R); assay: KINOMEscan; format: binding; conditions: read-out: %Ctrl @ 1000 nM
# T28 construct: purchased DiscoveRx KINOMEscan
# CLK4 = biological target: T29, CLK4 (Homo sapiens, UniProt Q9HAZ1); assay: KINOMEscan; format: binding; conditions: read-out: %Ctrl @ 1000 nM
# T29 construct: purchased DiscoveRx KINOMEscan
# Sequence of SMYD2 (Q9NRG4 whole entry): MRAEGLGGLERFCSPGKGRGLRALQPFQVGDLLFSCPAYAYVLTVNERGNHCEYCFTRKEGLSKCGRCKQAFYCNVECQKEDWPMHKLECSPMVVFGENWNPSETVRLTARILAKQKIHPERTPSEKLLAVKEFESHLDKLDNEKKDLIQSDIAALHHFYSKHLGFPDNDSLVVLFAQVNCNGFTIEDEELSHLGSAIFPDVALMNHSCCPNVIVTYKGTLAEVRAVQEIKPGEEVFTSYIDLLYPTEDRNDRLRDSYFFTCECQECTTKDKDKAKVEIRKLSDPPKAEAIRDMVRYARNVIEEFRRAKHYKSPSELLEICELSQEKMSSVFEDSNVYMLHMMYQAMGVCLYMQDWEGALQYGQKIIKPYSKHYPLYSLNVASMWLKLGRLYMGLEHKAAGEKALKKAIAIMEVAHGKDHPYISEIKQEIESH
# T9 sequence (P51813 whole entry): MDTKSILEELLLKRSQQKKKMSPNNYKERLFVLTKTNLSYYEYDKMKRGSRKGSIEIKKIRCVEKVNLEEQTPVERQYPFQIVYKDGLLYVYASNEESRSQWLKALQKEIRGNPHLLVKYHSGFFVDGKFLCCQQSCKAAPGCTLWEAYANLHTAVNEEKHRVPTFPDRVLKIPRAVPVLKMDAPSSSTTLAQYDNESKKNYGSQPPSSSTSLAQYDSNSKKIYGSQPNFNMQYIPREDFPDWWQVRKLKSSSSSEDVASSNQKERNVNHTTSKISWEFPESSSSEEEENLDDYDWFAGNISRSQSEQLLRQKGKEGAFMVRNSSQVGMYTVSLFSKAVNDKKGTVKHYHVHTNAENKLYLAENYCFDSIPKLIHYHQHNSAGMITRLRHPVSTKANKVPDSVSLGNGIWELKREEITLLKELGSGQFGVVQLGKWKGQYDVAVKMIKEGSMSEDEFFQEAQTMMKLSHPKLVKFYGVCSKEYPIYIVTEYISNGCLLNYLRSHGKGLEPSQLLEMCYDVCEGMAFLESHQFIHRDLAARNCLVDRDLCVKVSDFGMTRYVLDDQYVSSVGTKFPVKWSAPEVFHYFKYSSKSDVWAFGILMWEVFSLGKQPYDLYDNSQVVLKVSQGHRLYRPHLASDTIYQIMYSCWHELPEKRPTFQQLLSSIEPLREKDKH
# T24 sequence (Q9UPZ9 whole entry): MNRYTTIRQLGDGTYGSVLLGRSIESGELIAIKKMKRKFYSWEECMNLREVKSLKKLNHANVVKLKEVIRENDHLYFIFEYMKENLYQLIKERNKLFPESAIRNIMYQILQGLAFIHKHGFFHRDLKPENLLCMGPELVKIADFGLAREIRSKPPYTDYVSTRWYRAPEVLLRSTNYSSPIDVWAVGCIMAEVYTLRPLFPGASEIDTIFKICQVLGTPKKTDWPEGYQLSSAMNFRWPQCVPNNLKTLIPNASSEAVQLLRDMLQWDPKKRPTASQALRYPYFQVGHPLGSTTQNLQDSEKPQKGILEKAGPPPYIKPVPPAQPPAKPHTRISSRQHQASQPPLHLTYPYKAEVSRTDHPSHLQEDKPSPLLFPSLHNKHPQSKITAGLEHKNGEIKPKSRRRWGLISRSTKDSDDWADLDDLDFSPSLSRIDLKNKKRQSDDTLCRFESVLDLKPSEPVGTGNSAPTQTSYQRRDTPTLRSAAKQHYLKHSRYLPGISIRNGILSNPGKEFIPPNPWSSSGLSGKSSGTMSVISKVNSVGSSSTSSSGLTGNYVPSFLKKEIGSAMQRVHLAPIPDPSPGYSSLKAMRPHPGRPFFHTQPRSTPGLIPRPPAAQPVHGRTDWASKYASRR
# T28 sequence (P00533 25-1210 L858R): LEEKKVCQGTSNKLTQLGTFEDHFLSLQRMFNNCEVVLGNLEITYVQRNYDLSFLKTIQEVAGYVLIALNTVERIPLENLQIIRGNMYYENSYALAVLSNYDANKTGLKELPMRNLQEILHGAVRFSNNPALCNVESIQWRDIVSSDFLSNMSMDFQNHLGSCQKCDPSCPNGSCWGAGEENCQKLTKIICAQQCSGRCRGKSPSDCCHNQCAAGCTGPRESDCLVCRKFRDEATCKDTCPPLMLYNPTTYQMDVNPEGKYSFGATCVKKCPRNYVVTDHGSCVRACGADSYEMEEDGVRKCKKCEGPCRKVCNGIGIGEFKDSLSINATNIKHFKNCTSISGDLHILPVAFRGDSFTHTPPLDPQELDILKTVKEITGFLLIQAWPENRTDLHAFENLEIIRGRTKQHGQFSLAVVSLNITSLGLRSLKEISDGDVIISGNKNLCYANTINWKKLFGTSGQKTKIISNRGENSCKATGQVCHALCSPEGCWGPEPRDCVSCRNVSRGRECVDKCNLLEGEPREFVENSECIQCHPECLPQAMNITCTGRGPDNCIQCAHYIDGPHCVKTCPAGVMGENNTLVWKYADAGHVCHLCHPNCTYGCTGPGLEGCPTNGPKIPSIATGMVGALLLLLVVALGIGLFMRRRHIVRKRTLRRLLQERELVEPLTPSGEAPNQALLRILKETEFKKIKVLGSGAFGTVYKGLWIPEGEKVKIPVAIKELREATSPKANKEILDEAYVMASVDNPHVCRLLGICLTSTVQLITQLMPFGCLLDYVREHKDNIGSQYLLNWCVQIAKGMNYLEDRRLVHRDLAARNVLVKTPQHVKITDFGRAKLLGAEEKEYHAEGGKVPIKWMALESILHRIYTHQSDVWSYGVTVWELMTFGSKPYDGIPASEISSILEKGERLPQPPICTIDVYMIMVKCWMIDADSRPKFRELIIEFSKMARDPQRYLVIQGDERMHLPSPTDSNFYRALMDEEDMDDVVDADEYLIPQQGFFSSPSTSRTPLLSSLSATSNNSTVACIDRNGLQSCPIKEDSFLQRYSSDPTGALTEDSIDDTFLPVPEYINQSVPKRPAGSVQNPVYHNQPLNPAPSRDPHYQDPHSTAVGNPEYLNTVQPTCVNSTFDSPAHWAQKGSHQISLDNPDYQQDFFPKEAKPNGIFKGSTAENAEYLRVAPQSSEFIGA
# T21 sequence (P16591 whole entry): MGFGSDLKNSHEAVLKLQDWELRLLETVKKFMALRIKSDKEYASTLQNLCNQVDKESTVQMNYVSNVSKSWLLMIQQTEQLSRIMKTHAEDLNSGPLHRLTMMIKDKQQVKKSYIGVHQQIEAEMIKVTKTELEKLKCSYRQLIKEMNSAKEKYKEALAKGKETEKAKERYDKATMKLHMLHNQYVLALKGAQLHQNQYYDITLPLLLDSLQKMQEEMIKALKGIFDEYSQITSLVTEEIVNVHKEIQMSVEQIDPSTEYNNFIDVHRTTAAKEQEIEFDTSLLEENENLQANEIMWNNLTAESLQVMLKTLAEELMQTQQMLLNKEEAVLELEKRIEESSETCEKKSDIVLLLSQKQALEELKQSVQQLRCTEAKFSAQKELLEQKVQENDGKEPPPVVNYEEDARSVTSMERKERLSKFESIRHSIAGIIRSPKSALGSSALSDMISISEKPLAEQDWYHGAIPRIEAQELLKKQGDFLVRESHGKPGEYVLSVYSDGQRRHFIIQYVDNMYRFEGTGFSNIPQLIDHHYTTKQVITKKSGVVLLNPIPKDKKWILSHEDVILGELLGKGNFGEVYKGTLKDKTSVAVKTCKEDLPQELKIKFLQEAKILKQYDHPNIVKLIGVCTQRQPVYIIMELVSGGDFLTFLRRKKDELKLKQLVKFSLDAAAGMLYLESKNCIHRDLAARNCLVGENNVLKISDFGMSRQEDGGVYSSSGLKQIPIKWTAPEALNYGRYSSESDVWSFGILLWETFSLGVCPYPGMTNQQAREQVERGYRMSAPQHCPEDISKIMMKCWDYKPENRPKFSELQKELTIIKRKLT
# T16 sequence (P07949 29-1114 M918T): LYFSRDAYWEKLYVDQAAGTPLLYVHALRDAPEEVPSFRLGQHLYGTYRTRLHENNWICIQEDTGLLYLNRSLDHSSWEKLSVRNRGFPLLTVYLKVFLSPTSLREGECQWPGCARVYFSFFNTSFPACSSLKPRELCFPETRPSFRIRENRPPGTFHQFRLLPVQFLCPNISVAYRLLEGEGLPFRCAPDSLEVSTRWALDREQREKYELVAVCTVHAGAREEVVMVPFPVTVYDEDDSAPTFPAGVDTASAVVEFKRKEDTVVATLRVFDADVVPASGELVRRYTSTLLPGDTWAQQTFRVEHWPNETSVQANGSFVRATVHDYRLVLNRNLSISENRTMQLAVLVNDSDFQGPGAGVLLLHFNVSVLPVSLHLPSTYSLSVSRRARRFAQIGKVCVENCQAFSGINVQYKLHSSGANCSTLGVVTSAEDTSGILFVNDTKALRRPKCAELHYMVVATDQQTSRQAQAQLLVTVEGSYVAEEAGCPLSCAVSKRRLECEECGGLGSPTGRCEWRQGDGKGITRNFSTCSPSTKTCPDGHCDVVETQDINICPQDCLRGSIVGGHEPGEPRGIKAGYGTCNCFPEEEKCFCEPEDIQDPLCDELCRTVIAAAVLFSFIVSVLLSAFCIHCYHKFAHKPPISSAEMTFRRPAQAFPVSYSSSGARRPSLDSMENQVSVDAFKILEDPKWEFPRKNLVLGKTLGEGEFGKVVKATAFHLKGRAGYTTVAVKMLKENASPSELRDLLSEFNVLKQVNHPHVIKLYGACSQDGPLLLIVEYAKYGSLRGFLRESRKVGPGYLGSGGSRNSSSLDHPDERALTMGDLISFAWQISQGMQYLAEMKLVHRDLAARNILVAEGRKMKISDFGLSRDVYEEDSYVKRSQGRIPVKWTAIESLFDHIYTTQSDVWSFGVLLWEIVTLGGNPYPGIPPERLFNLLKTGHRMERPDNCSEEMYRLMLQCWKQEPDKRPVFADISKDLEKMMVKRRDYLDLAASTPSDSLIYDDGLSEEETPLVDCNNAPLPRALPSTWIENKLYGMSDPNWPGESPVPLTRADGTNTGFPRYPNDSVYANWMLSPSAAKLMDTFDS
smiles,measurement,setting,value
CCN(C(=O)CO)[C@H]1CN(/C(=N\C#N)Nc2cccc(OC(F)F)c2)N=C1c1ccc(Cl)c(Cl)c1 [(S)-4],remaining binding at 1 µM,TRKC,55%
same,remaining binding at 1 µM,JNK1,96%
same,remaining binding at 1 µM,TRKA,93%
same,Ex vivo AHNAK methylation in tumors,SMYD2; 10 mg/kg po qd,no significant effect
same,Ex vivo AHNAK methylation in tumors,SMYD2; 100 mg/kg po qd,most significant effects
same,Ex vivo AHNAK methylation in tumors,SMYD2; doses starting from 30 mg/kg po qd,significantly reduced
same,remaining binding at 1 µM,PCTK3,92%
same,remaining binding at 1 µM,VRK2,93%
same,remaining binding at 1 µM,ALK(L1196M),92%
same,remaining binding at 1 µM,ABL1-phosphorylated,90%
same,remaining binding at 1 µM,PAK2,89%
same,remaining binding at 1 µM,BMX,89%
same,remaining binding at 1 µM,TTK,82%
same,remaining binding at 1 µM,SYK,59%
same,remaining binding at 1 µM,PDGFRA,100%
same,remaining binding at 1 µM,DDR1,96%
same,remaining binding at 1 µM,SIK,98%
same,remaining binding at 1 µM,CSNK1G1,84%
same,remaining binding at 1 µM,RET(M918T),80%
same,remaining binding at 1 µM,CTK,100%
same,remaining binding at 1 µM,PFCDPK1(P.falciparum),76%
same,remaining binding at 1 µM,CAMKK2,84%
same,remaining binding at 1 µM,TSSK1B,79%
same,remaining binding at 1 µM,FER,68%
same,remaining binding at 1 µM,PRKR,84%
same,remaining binding at 1 µM,FGFR3,88%
same,remaining binding at 1 µM,ICK,99%
same,remaining binding at 1 µM,BTK,79%
same,remaining binding at 1 µM,MST2,88%
same,remaining binding at 1 µM,ROCK2,95%
same,remaining binding at 1 µM,EGFR(L858R),91%
same,remaining binding at 1 µM,CLK4,94%
